The results in this text go back to US20260334439A1, “BCAT2 INHIBITORS” (Agios Pharmaceuticals, Inc., priority 2023, published 2026).

For assay [1], the target named is T1, BCAT2 (Homo sapiens, UniProt O15382).
T1 sequence (O15382 28-392): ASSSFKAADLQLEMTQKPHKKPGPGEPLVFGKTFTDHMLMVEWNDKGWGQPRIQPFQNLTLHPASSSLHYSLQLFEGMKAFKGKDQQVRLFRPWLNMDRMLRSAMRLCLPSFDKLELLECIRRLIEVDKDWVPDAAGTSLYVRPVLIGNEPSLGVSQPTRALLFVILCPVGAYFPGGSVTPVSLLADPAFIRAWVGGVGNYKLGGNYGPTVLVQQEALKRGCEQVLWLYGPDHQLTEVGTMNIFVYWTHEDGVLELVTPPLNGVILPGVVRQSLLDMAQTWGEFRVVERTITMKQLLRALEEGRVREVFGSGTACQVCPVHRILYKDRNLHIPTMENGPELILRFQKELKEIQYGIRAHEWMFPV
The experiment in a line: BCAT2 cell inhibition using engineered A549 cells (MUT KO, BCAT1 KO; 13C6-KMV formation by LC-MS/MS). In kind it is cell-based. Further details: expressed endogenous BCAT2; endogenous in cells; host or cells: A549 cells, MUT knockout and BCAT1 knockout. The source says:
Endogenous Methylmalonyl-CoA Mutase (MUT) and Branched Chain Aminotransferase 1 (BCAT1) in A549 cells was knocked out by CRISPR/CAS9 using the targeting system from TransOMIC Technologies. The following guide sequence was cloned into pCLIP-ALL-EFS-Blast vector to target human MUT: […] (SEQ ID NO: 35). The following guide sequence was cloned into pCLIP-ALL-EFS-Puro vector to target human BCAT1: […] (SEQ ID NO: 36). The resulting plasmids were co-transfected into 293T cells with VSV-G, P-PEX, and Fugene-6. Lentivirus was harvested and A549 cells were first transduced with lentivirus targeting MUT and polybrene. After genetic selection with blasticidin clonal selection was performed and validated via western blot analysis to confirm MUT was no longer expressed. These MUT KO cells were then transduced with lentivirus targeting BCAT1 and polybrene. After selection with puromycin clonal selection was performed and clones were validated via western blot analysis to confirm BCAT1 was no longer expressed in these cells. The result was an engineered A549 cell line that expressed endogenous BCAT2.
For KMV cell assays, on day 1, 25,000 cells/100 μL EMEM (10% FBS) were seeded in each well of a 96-well plate. On day 2, medium was replaced with 50 μL fresh EMEM (10% dialyzed FBS) containing 2× the assay concentration of experimental compound. After 15 minutes, 50 μL of 800 uM ^15N,^13C6-Isoleucine in EMEM (10% dialyzed FBS) was added to each well and incubated for 24 hours. On day 3, 50 μL of media from each well was collected and transferred to another 96-well plate for ^13C6-3-Methyl-2-Oxopentanoic Acid (KMV) analysis via LC-MS/MS. In the remaining assay wells 50 μL of Promega Glo CTG reagent was added and luminescence was measured as a cell viability readout.
For LC-MS/MS analysis 5 μL of cell assay media from each well was transferred to a 96-well plate and 45 μL of ACN:0.1% NaOH (50:50, v/v)^+0.20 nM d8-KMV was added and mixed on a shaker. 15 μL was transferred to a new 96-well plate and 15 μL of 10 mg/mL PFBHA solution was added and mixed on the shaker. The reaction was placed on ice for 30 minutes and quenched with 10 μL of ACN: Acetone (50:50, v/v) on a shaker. The resulting mixture was diluted with 100 μL of ACN:0.1% NaOH (50:50, v/v) on a shaker. 10 μL of sample were injected on the Shimadzu 20AD LC-MS/MS to quantify ^13C6-KMV.
Where a compound was tested multiple times, the average value of the tests is reported.

Assay [2] addresses T1, BCAT2. The experiment in a line: BCAT2 in vitro enzyme inhibition assay (hBCAT2, glutamate dehydrogenase/diaphorase/resazurin coupled fluorescence read). To be noted: hBCAT2, 1 h preincubation at 25° C., one hour reaction; average where tested multiple times. In kind it is biochemical. The method, boiled down:
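Coupled GDH/diaphorase/resazurin fluorescence (Ex 540/Em 590) read after 1 h reaction at 25 °C, SDS-stopped; enzyme (0.33 μg/mL in mix) first preincubated 1 h with compound, 10-point 3-fold series from 100 μM final, Tris pH 8.0 buffer with NaCl, BSA; technical duplicates, averaged across tests.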
(The colour change of resazurin is a common sign of viable cells or microbes.)

The mark [3] stands for this setting: read-out: BCAT2 Cell Inhibition (IC50), engineered A549 cells, 24 hours, 13C6-KMV in media, average where tested multiple times.

Consider `CC(C)Oc1ccc(Cl)cc1C(=O)N[C@H]1CCC[C@@H](n2c(-c3ccccc3F)nc3cnc(-c4nc[nH]n4)cc32)C1` [Example 18, 5-chloro-N-((1S,3R)-3-(2-(2-fluorophenyl)-6-(1H-1,2,4-triazol-3-yl)-1H-imidazo[4,5-c]pyridin-1-yl)cyclohexyl)-2-isopropoxybenzamide], for which the IC50 against BCAT2 [1] and at BCAT2 [2] was less than 100 nM each time.

Consider `O=C(N[C@H]1CCC[C@@H](n2c(-c3ccccc3F)nc3cnc(-c4nc[nH]n4)cc32)C1)c1ccc(F)cn1` [Example 19, 5-fluoro-N-((1S,3R)-3-(2-(2-fluorophenyl)-6-(1H-1,2,4-triazol-3-yl)-1H-imidazo[4,5-c]pyridin-1-yl)cyclohexyl)picolinamide], for which the IC50 is 100 to 500 nM against BCAT2 [1] and less than 100 nM on BCAT2 [2].

`CCN(C)c1nc2cnc(-c3nc[nH]n3)cc2n1[C@@H]1CCC[C@H](NC(=O)c2cc(Cl)ccn2)C1` [Example 21, 4-chloro-N-((1S,3R)-3-(2-(ethyl(methyl)amino)-6-(1H-1,2,4-triazol-3-yl)-1H-imidazo[4,5-c]pyridin-1-yl)cyclohexyl)picolinamide]: the IC50 at BCAT2 [1] (setting [3]) is more than 1000 nM; against BCAT2 [2], 100 to 500 nM.

Regarding `COc1ncc(Cl)cc1C(=O)N[C@H]1CCC[C@@H](n2c(-c3ccccc3F)nc3cnc(-c4nc[nH]n4)cc32)C1` [Example 22, 5-chloro-N-((1S,3R)-3-(2-(2-fluorophenyl)-6-(1H-1,2,4-triazol-3-yl)-1H-imidazo[4,5-c]pyridin-1-yl)cyclohexyl)-2-methoxynicotinamide], the IC50 against BCAT2 [1] and at BCAT2 [2] was less than 100 nM throughout.

Consider `CCOc1ncc(Cl)cc1C(=O)N[C@H]1CCC[C@@H](n2c(-c3ccccc3F)nc3cnc(-c4nc[nH]n4)cc32)C1` [Example 23, 5-chloro-2-ethoxy-N-((1S,3R)-3-(2-(2-fluorophenyl)-6-(1H-1,2,4-triazol-3-yl)-1H-imidazo[4,5-c]pyridin-1-yl)cyclohexyl)nicotinamide], for which the IC50 on BCAT2 [1] and at BCAT2 [2] was less than 100 nM throughout.

In the case of `CCN(C)Cc1nc2cnc(-c3nc[nH]n3)cc2n1[C@@H]1CCC[C@H](NC(=O)c2cc(Cl)ccn2)C1` [Example 24, 4-chloro-N-((1S,3R)-3-(2-((ethyl(methyl)amino)methyl)-6-(1H-1,2,4-triazol-3-yl)-1H-imidazo[4,5-c]pyridin-1-yl)cyclohexyl)picolinamide], the IC50 on BCAT2 [1] (setting [3]) was more than 1000 nM; on BCAT2 [2], 500 to 1000 nM.

With `O=C(N[C@H]1CCC[C@@H](n2c(-c3ccccn3)nc3cnc(-c4nc[nH]n4)cc32)C1)c1cc(Cl)ccn1` [Example 25, 4-chloro-N-((1S,3R)-3-(2-(pyridin-2-yl)-6-(1H-1,2,4-triazol-3-yl)-1H-imidazo[4,5-c]pyridin-1-yl)cyclohexyl)picolinamide], the IC50 against BCAT2 [1] is 100 to 500 nM; on BCAT2 [2], less than 100 nM.

Turning to `CCOc1ccc(Cl)cc1C(=O)N[C@H]1CCC[C@@H](n2c(-c3ccccn3)nc3cnc(-c4nc[nH]n4)cc32)C1` [Example 26, 5-chloro-2-ethoxy-N-((1S,3R)-3-(2-(pyridin-2-yl)-6-(1H-1,2,4-triazol-3-yl)-1H-imidazo[4,5-c]pyridin-1-yl)cyclohexyl)benzamide], the results for the IC50 against BCAT2 [1] and on BCAT2 [2] were 100 to 500 nM and less than 100 nM, respectively.

With `CCOc1ccc(Cl)cc1C(=O)N[C@H]1CCC[C@@H](n2c(-c3ncccc3F)nc3cnc(-c4nc[nH]n4)cc32)C1` [Example 27, 5-chloro-2-ethoxy-N-((1S,3R)-3-(2-(3-fluoropyridin-2-yl)-6-(1H-1,2,4-triazol-3-yl)-1H-imidazo[4,5-c]pyridin-1-yl)cyclohexyl)benzamide], the concentration for half-maximal inhibition (IC50) against BCAT2 [1] and against BCAT2 [2] was less than 100 nM throughout.

Regarding `O=C(N[C@H]1CCC[C@@H](n2c(-c3ccccc3F)nc3cnc(-c4nc[nH]n4)cc32)C1)c1cc(Cl)ccc1OC1CC1` [Example 29, 5-chloro-2-cyclopropoxy-N-((1S,3R)-3-(2-(2-fluorophenyl)-6-(1H-1,2,4-triazol-3-yl)-1H-imidazo[4,5-c]pyridin-1-yl)cyclohexyl)benzamide], the IC50 on BCAT2 [1] and against BCAT2 [2] was less than 100 nM in each case.

For the compound `O=C(N[C@H]1CCC[C@@H](n2c(-c3ccccc3F)nc3cnc(-c4nc[nH]n4)cc32)C1)c1cc(Cl)cc2ccoc12` [Example 31, 5-chloro-N-((1S,3R)-3-(2-(2-fluorophenyl)-6-(1H-1,2,4-triazol-3-yl)-1H-imidazo[4,5-c]pyridin-1-yl)cyclohexyl)benzofuran-7-carboxamide], the IC50 against BCAT2 [1] and against BCAT2 [2] was less than 100 nM each time.

Regarding `CCNc1ccc(Cl)cc1C(=O)N[C@H]1CCC[C@@H](n2c(-c3ccccc3F)nc3cnc(-c4nc[nH]n4)cc32)C1` [Example 32, 5-chloro-2-(ethylamino)-N-((1S,3R)-3-(2-(2-fluorophenyl)-6-(1H-1,2,4-triazol-3-yl)-1H-imidazo[4,5-c]pyridin-1-yl)cyclohexyl)benzamide], the values for the IC50 at BCAT2 [1] (setting [3]) and at BCAT2 [2] were more than 1000 nM and 100 to 500 nM, respectively.

As to `COc1ccc(C#N)cc1C(=O)N[C@H]1CCC[C@@H](n2c(-c3ccccc3F)nc3cnc(-c4nc[nH]n4)cc32)C1` [Example 33, 5-cyano-N-((1S,3R)-3-(2-(2-fluorophenyl)-6-(1H-1,2,4-triazol-3-yl)-1H-imidazo[4,5-c]pyridin-1-yl)cyclohexyl)-2-methoxybenzamide], the IC50 against BCAT2 [1] is 500 to 1000 nM; against BCAT2 [2], less than 100 nM.

`O=C(N[C@H]1CCC[C@@H](n2c(-c3ccccc3F)nc3cnc(-c4nc[nH]n4)cc32)C1)c1cc(Cl)ccc1OCCO` [Example 34, 5-chloro-N-((1S,3R)-3-(2-(2-fluorophenyl)-6-(1H-1,2,4-triazol-3-yl)-1H-imidazo[4,5-c]pyridin-1-yl)cyclohexyl)-2-(2-hydroxyethoxy)benzamide]: the IC50 against BCAT2 [1] and on BCAT2 [2] was less than 100 nM in each case.

As for `O=C(N[C@H]1CCC[C@@H](n2c(-c3ccccc3F)nc3cnc(-c4nc[nH]n4)cc32)C1)c1cc(Cl)ccc1OCCN1CCCC1` [Example 35, 5-chloro-N-((1S,3R)-3-(2-(2-fluorophenyl)-6-(1H-1,2,4-triazol-3-yl)-1H-imidazo[4,5-c]pyridin-1-yl)cyclohexyl)-2-(2-(pyrrolidin-1-yl)ethoxy)benzamide], the figures for the IC50 at BCAT2 [1] and against BCAT2 [2] were 500 to 1000 nM and 100 to 500 nM, respectively.

Take `CC(C)Oc1ccc(Cl)cc1C(=O)N[C@H]1CCC[C@@H](n2c(-c3ccccc3C#N)nc3cnc(-c4nc[nH]n4)cc32)C1` [Example 36, 5-chloro-N-((1S,3R)-3-(2-(2-cyanophenyl)-6-(1H-1,2,4-triazol-3-yl)-1H-imidazo[4,5-c]pyridin-1-yl)cyclohexyl)-2-isopropoxybenzamide]: the IC50 on BCAT2 [1] and against BCAT2 [2] was less than 100 nM each time.

As for `CN(C)Cc1ccc(Cl)cc1C(=O)N[C@H]1CCC[C@@H](n2c(-c3ccccc3F)nc3cnc(-c4nc[nH]n4)cc32)C1` [Example 37, 5-chloro-2-((dimethylamino)methyl)-N-((1S,3R)-3-(2-(2-fluorophenyl)-6-(1H-1,2,4-triazol-3-yl)-1H-imidazo[4,5-c]pyridin-1-yl)cyclohexyl)benzamide], the IC50 against BCAT2 [1] is 500 to 1000 nM; against BCAT2 [2] it was less than 100 nM.

Broadly, the IC50 is the concentration that gives 50% inhibition.
